According to patent publication US9206154B2 (The United States of America, as represented by the …, priority 2010, dated 2015):

Key:
[1] = test system: TPO, TSHR, TG, DIO2 and NIS mRNAs; assay: Basal expression of thyroid gene mRNAs in primary cultures of human thyrocytes (quantitative RT-PCR); assay type: cell-based; conditions: 30 μM, 48 hr, IBMX, no agonist
Protocol: FIG. 4B) Thyrocytes were incubated in media containing 2% fetal bovine serum and 1 mM IBMX without or with 30 μM 1 as described in Methods. After 48 h, the cells were lysed and the levels of the mRNAs were measured and normalized to GAPDH mRNA. The mRNA levels are presented as fold stimulation over control. The data are from three independent experiments with duplicate samples are shown.
Culture of primary human thyrocytes.
(§1) Quantitative RT-PCR. mRNA levels were measured using primers and probes were from Applied Biosystems. Quantitative RT-PCR results were normalized to GAPDH to correct for differences in RNA input.

[2] = test system: 7TMR for vasoactive intestinal peptide; assay: Vasoactive intestinal peptide-stimulated cAMP accumulation in human thyrocytes; assay type: cell-based
Description: (§2) This was important because it has been shown that TSHR mutants signal differently in different cell types. […] TSH and the small molecule ligand agonist that were identified previously specifically increase expression of several genes in thyrocytes (J Biomol Screen 13, 120, 2008; Proc Nat Acad Sci 106, 12471, 2009).

adenylyl cyclase = assay: Forskolin-stimulated cAMP accumulation in human thyrocytes; assay type: cell-based
Description: as §2

beta-adrenergic receptor = assay: Isoproterenol-stimulated cAMP accumulation in human thyrocytes; assay type: cell-based
Description: as §2

TSHR [3] = biological target: T1, TSHR (Homo sapiens, UniProt P16473); assay: Graves' disease sera-stimulated cAMP production in HEKTSHR cells; assay type: cell-based; conditions: 1:30 dilutions of thirty GD sera
T1 construct: expressed in transfected cells
Protocol: FIG. 13A. […] After an additional 40 min, the incubation was stopped and total cAMP levels were measured by ELISA. The data are from one experiment with triplicate samples and are representative of 3 experiments. The effects of compound S2-6 were significant by paired t-test (P<0.01).
FIG. 13B. HEKTSHR cells were incubated without (Control) or with 30 μM compound S2-6 for 20 min and then 1 mM IBMX and 1:30 dilutions of thirty GD sera were added. After an additional 40 min, the incubation was stopped and total cAMP levels were measured by ELISA. […] The data are representative of 2 experiments performed in duplicate.

TSHR [4] = biological target: T1, TSHR; assay: TSH-stimulated cAMP production in HEK-EM 293 cells stably expressing TSHRs; assay type: cell-based; conditions: for classification from dose response of TSH-stimulated cAMP (FIG. 11): 1 mU/ml hTSH (EC50 dose)
Protocol: (§3) After 60 min, the cells were lysed and cAMP levels were measured by ELISA.
(§4) Non-treated cells, incubated with IBMX only, were used as control (basal activity). After 60 min, the cells were lysed and cAMP levels were measured by ELISA. […] After 40 min, the incubation was stopped and total cAMP levels were measured by ELISA.
After 40 min, the incubation was stopped and total cAMP levels were measured by ELISA. The data are from 2 experiments with duplicate samples and are presented as mean±SE.
(§5) Determination of cAMP production.

[5] = cited from earlier work
TPO mRNA = assay: Basal and TSAb-induced up-regulation of TPO mRNA in primary cultures of human thyrocytes; assay type: cell-based; conditions: 30 μM, 1:10 dilutions of GD sera, 48 hr
Protocol: Thyrocytes were incubated in DMEM containing 2% fetal bovine serum without (Control) or with 30 μM compound S2-6 without (basal) or with 1:10 dilutions of GD sera at 37 C. After 48 hr, the buffers were aspirated, the cells were lysed and the levels of TPO mRNA were measured and normalized to GAPDH mRNA. The mRNA levels are presented as fold of basal levels (Control). The data from 2 independent experiments with duplicate samples are shown.
as §1

TSHR [6] = biological target: T1, TSHR; assay: 125I-TSH binding to TSHRs on the surface of HEK-EM 293 cells; conditions: HEK-EM 293 / HEKTSHR cells
Protocol: HEK-EM293 cells stably expressing TSHRs were seeded into 24-well plates and grown to near confluency. Cell surface binding was measured by incubation in 0.25 ml binding buffer (HBSS containing 2.5% milk powder and 0.2% BSA) containing 60,000 cpm bovine ^125I-TSH without or with xx μM 1 for 2 hr at RT; nonspecific binding was measured in the presence of 1.8 μM unlabeled bovine TSH. Cells were washed 3 times with 0.5 ml ice cold HBSS and lysed with 0.5 ml 0.4 N NaOH, and the cell-associated radioactivity counted in a gamma counter.

[7] = biological target: T2, TSHRs on retro-orbital fibroblasts (Homo sapiens, UniProt P16473); assay: TSHR signaling in retro-orbital fibroblasts from patients with Graves' orbitopathy; assay type: cell-based; conditions: preliminary experiment; fibroblasts in cell culture
T2 construct: endogenous in cells; host or cells: cultured retro-orbital fibroblasts from Graves' orbitopathy patients
Description: In a preliminary experiment, it has been shown that compound S2-6 inhibits activation of TSHRs on retro-orbital fibroblasts acquired from patients with Graves' orbitopathy. Retro-orbital fibroblasts were obtained from patients undergoing decompression eye surgery for Graves' orbitopathy and were adapted to cell culture.

TSHR [8] = biological target: T1, TSHR; assay: Basal (agonist-independent) cAMP production in HEK-EM 293 cells stably expressing TSHRs; assay type: cell-based; conditions: for classification from dose response of basal cAMP (inverse agonist activity): 60 min in HBSS + 1 mM IBMX, % of basal activity
Protocol: as §3, §4
HEK-EM 293 cells stably expressing TSHRs were exposed to the noted concentrations of the small molecule ligands for 60 min in HBSS+1 mM IBMX. Non-treated cells, incubated with IBMX only, were used as control (basal activity). After 60 min, the cells were lysed and cAMP levels were measured by ELISA.
as §5

TSHR [9] = biological target: T1, TSHR; conditions: cited from earlier work

T1 sequence (P16473 21-764): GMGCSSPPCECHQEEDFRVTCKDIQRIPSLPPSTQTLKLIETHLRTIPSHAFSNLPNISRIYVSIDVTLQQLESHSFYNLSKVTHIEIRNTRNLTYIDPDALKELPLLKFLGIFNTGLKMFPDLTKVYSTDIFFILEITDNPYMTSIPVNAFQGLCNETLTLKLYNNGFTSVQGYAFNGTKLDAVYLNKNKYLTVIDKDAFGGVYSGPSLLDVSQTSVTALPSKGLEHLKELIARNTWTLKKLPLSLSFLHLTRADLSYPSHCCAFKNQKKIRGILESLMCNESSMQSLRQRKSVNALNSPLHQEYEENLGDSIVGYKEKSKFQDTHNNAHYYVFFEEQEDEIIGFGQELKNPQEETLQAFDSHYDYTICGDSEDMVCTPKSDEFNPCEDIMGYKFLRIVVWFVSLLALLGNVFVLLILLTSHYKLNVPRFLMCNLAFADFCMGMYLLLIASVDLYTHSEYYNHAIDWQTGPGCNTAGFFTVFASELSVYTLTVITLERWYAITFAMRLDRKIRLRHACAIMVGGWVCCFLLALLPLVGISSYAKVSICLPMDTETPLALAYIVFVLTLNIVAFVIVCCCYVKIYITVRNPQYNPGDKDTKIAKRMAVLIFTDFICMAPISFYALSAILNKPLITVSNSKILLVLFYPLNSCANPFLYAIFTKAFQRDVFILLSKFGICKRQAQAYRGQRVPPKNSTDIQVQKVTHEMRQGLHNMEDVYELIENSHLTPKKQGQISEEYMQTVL
T2 sequence (P16473 21-764): as above

COc1ccc(C2Nc3ccccc3C(=O)N2Cc2ccco2)cc1COc1c(C)cccc1C (centres unmarked) [Compound 1, 2-(3-((2,6-dimethylphenoxy)methyl)-4-methoxyphenyl)-3-(furan-2-ylmethyl)-2,3-dihydroquinazolin-4(1H)-one]
DIO2 mRNA level [1]: decreased | NIS mRNA level [1]: decreased | TG mRNA level [1]: decreased | TPO mRNA level [1]: decreased | TSHR mRNA level [1]: decreased | cAMP accumulation stimulated by vasoactive intestinal peptide [2]: did not decrease | cAMP accumulation stimulated by forskolin (adenylyl cyclase): did not decrease | cAMP accumulation stimulated by isoproterenol (beta-adrenergic receptor): did not decrease

COc1ccc(C2Nc3ccccc3C(=O)N2Cc2cccnc2)cc1COc1c(C)cccc1C (centres unmarked) [Compound S2-6, 2-(3-((2,6-dimethylphenoxy)methyl)-4-methoxyphenyl)-3-(pyridin-3-ylmethyl)-2,3-dihydroquinazolin-4-one]
inhibition at 30 µM (TSHR [3]): 39 ± 2.6% | classification from dose response of TSH-stimulated cAMP (FIG. 11) (TSHR [4]): neutral antagonists | inhibition at 30 µM (TSHR [4]; HEK-EM293, read-out: inhibition of cAMP production stimulated by an EC50 concentration of TSH at 30 μM): 53% | mode of antagonism of TSH signaling (TSHR [4]; varying TSH concentrations (Schild analysis for compound 1)): competitive | solubility relative to compound 1 [5]: increased solubility | inhibition of basal and GD sera TSAb up-regulation of thyroperoxidase mRNA levels (TPO mRNA): 65±2.0% | effect on 125I-TSH binding to TSHRs (TSHR [6]): no effect | inhibition of basal signaling in retro-orbital fibroblasts [7]: 75% | inhibition of thyroid-stimulating antibody-stimulated signaling in retro-orbital fibroblasts [7]: 85% | classification from dose response of basal cAMP (inverse agonist activity) (TSHR [8]): inverse agonists | inhibition at 30 µM (TSHR [8]; HEK-EM293, read-out: inhibition of basal cAMP production by TSHRs at 30 μM): 53% | potency and efficacy as TSHR antagonist relative to compound 1 (TSHR [9]): as potent and effective as compound 1

COc1ccc(C2Nc3ccccc3C(=O)N2Cc2ccco2)cc1COc1c(C)cc(NC(C)=O)cc1C (centres unmarked) [Compound S2-7, N-(4-(5-(3-(Furan-2-ylmethyl)-4-oxo-1,2,3,4-tetrahydroquinazolin-2-yl)-2-methoxybenzyloxy)-3,5-dimethylphenyl)acetamide]
classification from dose response of TSH-stimulated cAMP (FIG. 11) (TSHR [4]): neutral antagonists | classification from dose response of basal cAMP (inverse agonist activity) (TSHR [8]): inverse agonists

COc1ccc(C2Nc3ccccc3C(=O)N2Cc2ccco2)cc1CSc1c(C)cccc1C (centres unmarked) [Compound S2-8, 2-(3-((2,6-Dimethylphenylthio)methyl)-4-methoxyphenyl)-3-(furan-2-ylmethyl)-2,3-dihydroquinazolin-4(1H)-one]
classification from dose response of TSH-stimulated cAMP (FIG. 11) (TSHR [4]): neutral antagonists | classification from dose response of basal cAMP (inverse agonist activity) (TSHR [8]): neutral antagonist

COc1ccc(C2Nc3ccccc3C(=O)N2Cc2cccnc2)cc1COc1c(C)cc(NC(C)=O)cc1C (centres unmarked) [Compound S2-17, N-(4-(2-Methoxy-5-(4-oxo-3-(pyridin-3-ylmethyl)-1,2,3,4-tetrahydroquinazolin-2-yl)benzyloxy)-3,5-dimethylphenyl)acetamide]
classification from dose response of TSH-stimulated cAMP (FIG. 11) (TSHR [4]): neutral antagonists

COCCN1C(=O)c2ccccc2NC1c1ccc(OC)c(COc2c(C)cc(NC(C)=O)cc2C)c1 (centres unmarked) [Compound S2-29, N-(4-(2-methoxy-5-(3-(2-methoxyethyl)-4-oxo-1,2,3,4-tetrahydroquinazolin-2-yl)benzyloxy)-3,5-dimethylphenyl)acetamide]
classification from dose response of TSH-stimulated cAMP (FIG. 11) (TSHR [4]): neutral antagonists
